Calls of active or inactive are those of the source. No cut-off for these calls is given here.
Experiments:
IMR-32 = test: Cytotoxicity against human IMR-32 cells assessed as cell viability at 10 uM incubated for 24 hrs by MTT assay; type: toxicity, cell-based; conditions: imr-32, 24 h
Trypanosoma brucei = test: microbe, parasite or virus in culture; type: functional, organism-based; conditions: Lister 427WT, 48 h
Description: Antiparasitic activity against Trypanosoma brucei Lister 427WT bloodstream trypomastigotes incubated for 48 hrs by Resazurin assay

[1] = Cytotoxicity against mouse L929 cells incubated for 96 hrs by Alamar Blue assay; type: toxicity, cell-based; conditions: read-out: LC50
[2] = target: T1, Histone deacetylase (Homo sapiens) (UniProt Q13547+O15379+Q9UBN7+Q92769+Q9UQL6+Q8WUI4+Q9BY41+Q96DB2+P56524+Q9UKV0+Q969S8); test: Inhibition of HDAC in human MET5A cells transfected with Rluc-Brd/YFP-fused histone H3 at 0.1 to 10 uM by BRET assay; type: cell-based; conditions: dose 0.1-10 µM
HepG2 [3] = test: Cytotoxicity against human HepG2 cells assessed as cell viability at 10 uM incubated for 24 hrs by MTT assay; type: toxicity, cell-based; conditions: hepg2, 24 h
Leishmania mexicana = test: Antiparasitic activity against Leishmania mexicana Cas9 promastigotes incubated for 48 hrs by Resazurin assay; type: functional, organism-based; conditions: Cas9, 48 h
Trypanosoma cruzi = test: Antiparasitic activity against Trypanosoma cruzi Tulahuen intracellular forms infected in mouse L929 cells incubated for 96 hrs by spectrophotometery; type: functional, organism-based; conditions: L929, 96 h
Leishmania amazonensis = test: Antiparasitic activity against Leishmania amazonensis MHOM/BR/77/LTB0016 amastigotes infected in BALB/c mouse incubated for 48 hrs by Alamar Blue assay; type: functional, organism-based; conditions: MHOM/BR/77/LTB0016, 48 h
[4] = target: T1, Histone deacetylase (Homo sapiens); test: Inhibition of HDAC in human MET5A cells transfected with Rluc-Brd/YFP-fused histone H3 by BRET assay; type: cell-based; conditions: dose 0.1-10 µM
[5] = target: T2, Protein deacetylase HDAC6 (Homo sapiens, UniProt Q9UBN7); test: Inhibition of HDAC6 (unknown origin) using RHKK(Ac)AMC as substrate
T2 sequence (Q9UBN7 whole entry): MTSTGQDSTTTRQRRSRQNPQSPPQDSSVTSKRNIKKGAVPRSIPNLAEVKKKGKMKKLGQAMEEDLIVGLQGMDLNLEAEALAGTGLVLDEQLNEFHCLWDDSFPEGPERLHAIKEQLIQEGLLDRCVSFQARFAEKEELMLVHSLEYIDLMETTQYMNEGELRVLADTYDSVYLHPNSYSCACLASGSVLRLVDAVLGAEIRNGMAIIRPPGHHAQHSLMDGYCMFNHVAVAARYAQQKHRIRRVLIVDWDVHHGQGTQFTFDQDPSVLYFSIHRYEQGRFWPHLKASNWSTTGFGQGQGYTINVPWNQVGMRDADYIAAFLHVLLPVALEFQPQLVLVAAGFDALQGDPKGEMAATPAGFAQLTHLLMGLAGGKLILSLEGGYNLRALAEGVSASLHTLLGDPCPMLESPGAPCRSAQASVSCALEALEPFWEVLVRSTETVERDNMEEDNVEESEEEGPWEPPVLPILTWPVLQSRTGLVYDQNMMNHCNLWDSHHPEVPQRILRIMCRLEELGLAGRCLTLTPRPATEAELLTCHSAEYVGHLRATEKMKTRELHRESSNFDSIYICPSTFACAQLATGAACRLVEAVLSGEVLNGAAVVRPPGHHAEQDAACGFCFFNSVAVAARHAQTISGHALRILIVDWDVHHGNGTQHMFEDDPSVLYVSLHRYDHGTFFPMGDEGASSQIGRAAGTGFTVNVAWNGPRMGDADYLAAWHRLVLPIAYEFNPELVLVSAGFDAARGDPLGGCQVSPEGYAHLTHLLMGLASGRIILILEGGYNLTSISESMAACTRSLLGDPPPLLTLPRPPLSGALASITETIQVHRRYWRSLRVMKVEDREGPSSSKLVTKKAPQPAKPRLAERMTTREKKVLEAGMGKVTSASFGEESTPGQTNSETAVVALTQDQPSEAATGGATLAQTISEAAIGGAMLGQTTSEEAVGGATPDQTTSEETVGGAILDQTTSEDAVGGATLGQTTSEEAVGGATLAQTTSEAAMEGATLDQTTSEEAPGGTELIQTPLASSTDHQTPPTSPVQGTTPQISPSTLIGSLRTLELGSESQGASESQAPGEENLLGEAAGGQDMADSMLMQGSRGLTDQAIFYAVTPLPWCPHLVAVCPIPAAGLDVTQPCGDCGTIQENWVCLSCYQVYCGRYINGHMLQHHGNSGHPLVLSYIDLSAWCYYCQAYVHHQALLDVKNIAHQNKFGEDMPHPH

HepG2 [6] = test: Cytotoxicity against human HepG2 cells assessed as reduction in cell viability at 10 uM incubated for 24 hrs by MTT assay relative to control; type: toxicity, cell-based; conditions: hepg2, 24 h

| SMILES | Activity (IMR-32) | EC50 (Trypanosoma brucei) [µM] | CC50 at 96 h [1] [µM] | inhibition [2] | Activity (HepG2 [3]) | EC50 (Leishmania mexicana) [µM] | EC50 (Trypanosoma cruzi) [µM] | EC50 (Leishmania amazonensis) [µM] | inhibition [4] | IC50 [5] [µM] | Activity (HepG2 [6]) [%] |
| --- | --- | --- | --- | --- | --- | --- | --- | --- | --- | --- | --- |
| COc1cccc(CCCCCCCCCCCC(=O)Nc2ccccc2N)c1 | Non-Toxic | 14.4 | > 200 | inactive | Non-Toxic | > 100 | > 10 |  |  |  |  |
| Nc1ccccc1NC(=O)CCCCCCCCCCCc1cccc(OC(=O)c2ccccc2)c1 | Non-Toxic | 8.5 | > 200 | inactive | Non-Toxic | > 100 | > 10 | > 30 |  |  |  |
| O=C(CCCCCCCCCCCc1cccc(OCc2ccccc2)c1)NO | Non-Toxic | 4.8 | 90 |  | Non-Toxic | 69 | > 10 | 14.5 | Dose-Dependent Effect |  |  |
| N=C(N)c1ccc(OCCCCCOc2ccc(C(=N)N)cc2)cc1 [PENTAMIDINE] |  | 0.021 |  |  |  | 1.3 |  |  |  |  |  |
| O=C(Cn1ccnc1[N+](=O)[O-])NCc1ccccc1 [BENZNIDAZOLE] |  |  | > 200 |  |  |  | 2.63 |  |  |  |  |
| Nc1ccccc1NC(=O)CCCCCCCCCCCc1cccc(O)c1 | Non-Toxic | 7.2 | 145 | inactive | Non-Toxic | 58 | > 10 | > 30 |  |  |  |
| Nc1ccccc1NC(=O)CCCCCCCCCCCc1cccc(OCc2ccccc2)c1 | Non-Toxic | 78.3 | > 200 | inactive | Non-Toxic | > 100 | > 10 | > 30 |  |  |  |
| C[C@@H]1[C@H](O)[C@@H](C)/C=C/C=C/C=C/C=C/C=C/C=C/C=C/[C@H](O[C@@H]2O[C@H](C)[C@@H](O)[C@H](N)[C@@H]2O)C[C@@H]2O[C@](O)(C[C@@H](O)C[C@@H](O)[C@H](O)CC[C@@H](O)C[C@@H](O)CC(=O)O[C@H]1C)C[C@H](O)[C@H]2C(=O)O [AMPHOTERICIN B] |  |  |  |  |  | 0.15 |  |  |  |  |  |
| O=C(CCCCCCCCCCCc1cccc(O)c1)NO | Non-Toxic | 5.1 | 151 |  | Non-Toxic | ~100 | > 10 | > 30 | Dose-Dependent Effect | 1.01 |  |
| CCCCCCCCCCCCCCCCOP(=O)([O-])OCC[N+](C)(C)C [MILTEFOSINE] |  |  |  |  |  |  |  | 1.38 |  |  |  |
| O=C(CCCCCCCCCCCc1cccc(OC(=O)c2ccccc2)c1)NO | Non-Toxic | 4.8 | 79 | inactive | Non-Toxic | 54 | > 10 | > 30 |  |  |  |
| COc1cccc(CCCCCCCCCCCC(=O)NO)c1 | Non-Toxic | 0.7 | 157 | inactive |  | 104 | > 10 | > 30 |  |  | 25 |

Source: ChEMBL document CHEMBL5614458, “Benign-by-Design SAHA Analogues for Human and Animal Vector-Borne Parasitic Diseases” (ACS Med Chem Lett, 2024)
